This passage reports IC50 and Ki results from ChEMBL document CHEMBL1151085, “Design, synthesis and SAR of RGD peptide hybrids as highly efficient inhibitors of platelet aggregation” (Bioorg Med Chem Lett, 1995).

Each structure is given as a SMILES string.

The first experiment is filed under the species Homo sapiens. The experiment can be described thus: In vitro for its inhibitory activity against platelet aggregation induced by ADP. The experiment is classed as functional.
By IC50 is commonly meant the concentration that gives 50% inhibition. `N=C(N)Nc1ccc(C(=O)NCCC(=O)N[C@@H](CC(=O)O)C(=O)N[C@H](Cc2c[nH]c3ccccc23)C(=O)O)cc1`: the IC50 is 70 nM.

The compound `N=C(N)NCc1ccc(C(=O)NCCC(=O)N[C@@H](CC(=O)O)C(=O)N[C@H](Cc2c[nH]c3ccccc23)C(=O)O)cc1` yielded an IC50 of 710 nM.

As to `N=C(N)c1ccc(C(=O)NCCC(=O)N[C@@H](CC(=O)O)C(=O)N[C@H](Cc2ccc3ccccc3c2)C(=O)O)cc1`, the IC50 stood at 44 nM.

As to `N=C(N)Nc1ccc(C(=O)NC(Cc2ccc(O)cc2)C(=O)N[C@@H](CC(=O)O)C(=O)N[C@H](Cc2c[nH]c3ccccc23)C(=O)O)cc1` (some centres undefined), the IC50 is over 50000 nM.

Take `N=C(N)c1ccc(C(=O)NCCCC(=O)N[C@@H](CC(=O)O)C(=O)N[C@H](Cc2c[nH]c3ccccc23)C(=O)O)cc1`: the IC50 was over 50000 nM.

`N=C(N)Nc1ccc(C(=O)NCCC(=O)N[C@@H](CC(=O)O)C(=O)N[C@H](Cc2ccc3ccccc3c2)C(=O)O)cc1` yielded an IC50 of 320 nM.

With `N=C(N)Nc1ccc(C(=O)NCCC(=O)N[C@@H](CC(=O)O)C(=O)N[C@@H](C(=O)O)c2ccccc2)cc1`, the IC50 is 2900 nM.

Consider `N=C(N)Nc1ccc(C(=O)NCCC(=O)N[C@@H](CC(=O)O)C(=O)N[C@H](Cc2ccccc2)C(=O)O)cc1`, for which the IC50 amounted to 390 nM.

Regarding `N=C(N)Nc1ccc(C(=O)NCCC(=O)N[C@@H](CC(=O)O)C(=O)N[C@H](CC2CCCCC2)C(=O)O)cc1`, the IC50 came to 88 nM.

Compound `N=C(N)Nc1ccc(C(=O)NCCC(=O)N[C@@H](CC(=O)O)C(=O)N[C@@H](Cc2ccccc2)C(=O)O)cc1` gave an IC50 of 6100 nM.

Compound `N=C(N)Nc1ccc(C(=O)NCCC(=O)N[C@@H](CC(=O)O)C(=O)N[C@H](Cc2ccc(O)cc2)C(=O)O)cc1` had an IC50 of 190 nM.

As to `N=C(N)Nc1ccc(C(=O)NCCCC(=O)N[C@@H](CC(=O)O)C(=O)N[C@H](Cc2c[nH]c3ccccc23)C(=O)O)cc1`, the half-inhibitory concentration (IC50) is over 50000 nM.

For `N=C(N)c1ccc(C(=O)NCCC(=O)N[C@@H](CC(=O)O)C(=O)N[C@@H](Cc2ccc(O)cc2)C(=O)O)cc1`, it took 1200 nM to reach half-maximal inhibition (IC50).

Take `N=C(N)Nc1ccc(C(=O)NCCC(=O)N[C@@H](CC(=O)O)C(=O)N[C@H](Cc2ccc(F)cc2)C(=O)O)cc1`: the IC50 is 1700 nM.

Regarding `N=C(N)Nc1ccc(C(=O)NCC(=O)N[C@@H](CC(=O)O)C(=O)N[C@H](Cc2c[nH]c3ccccc23)C(=O)O)cc1`, the IC50 was 600 nM.

`N=C(N)Nc1ccc(C(=O)NCCC(=O)N[C@@H](CC(=O)O)C(=O)N[C@H](Cc2cccc3ccccc23)C(=O)O)cc1` came in with an IC50 of 770 nM.

As for `N=C(N)Nc1ccc(C(=O)N2CCC(C(=O)N[C@@H](CC(=O)O)C(=O)N[C@H](Cc3c[nH]c4ccccc34)C(=O)O)CC2)cc1`, the IC50 came out at 4600 nM.

The compound `N=C(N)c1ccc(C(=O)NCCC(=O)N[C@@H](CC(=O)O)C(=O)NC(Cc2ccc(F)cc2)C(=O)O)cc1` (single isomer, unassigned) gave an IC50 of 47 nM.

On to `N=C(N)c1ccc(C(=O)NCCC(=O)N[C@@H](CC(=O)O)C(=O)N[C@H](Cc2c[nH]c3ccccc23)C(=O)O)cc1` (single isomer, unassigned), for which the IC50 was 26 nM.

Compound `N=C(N)c1ccc(C(=O)NCCC(=O)N[C@@H](CC(=O)O)C(=O)NC(Cc2ccc(O)cc2)C(=O)O)cc1` (single isomer, unassigned) gave an IC50 of 20 nM.

Target in another experiment: not listed separately
The experiment can be described thus: Displacement of [3H]SKF-107260 from […] integrin. The arrangement: species or system Homo sapiens. (In general: In a radioligand displacement assay an active substance lowers the binding of a labelled ligand.)
As a reminder, the Ki is the equilibrium dissociation constant of an inhibitor or competing ligand from its target. High values mean lower affinity, low ones higher affinity. For the compound `N=C(N)c1ccc(C(=O)NCCC(=O)N[C@@H](CC(=O)O)C(=O)N[C@H](Cc2c[nH]c3ccccc23)C(=O)O)cc1` (single isomer, unassigned), the Ki amounted to 35000 nM.

Compound `N=C(N)c1ccc(C(=O)NCCC(=O)N[C@@H](CC(=O)O)C(=O)NC(Cc2ccc(O)cc2)C(=O)O)cc1` (single isomer, unassigned) had a Ki of 75000 nM.

For another experiment, the target named is Integrin alpha-IIb/beta-3 (Homo sapiens, UniProt P05106+P08514). The experiment can be described thus: Displacement of [3H]SKF-107260 from alpha IIb beta3 integrin. The experiment is classed as protein-complex assay.
Chain of Integrin alpha-IIb/beta-3 (P05106 27-788 limits assumed): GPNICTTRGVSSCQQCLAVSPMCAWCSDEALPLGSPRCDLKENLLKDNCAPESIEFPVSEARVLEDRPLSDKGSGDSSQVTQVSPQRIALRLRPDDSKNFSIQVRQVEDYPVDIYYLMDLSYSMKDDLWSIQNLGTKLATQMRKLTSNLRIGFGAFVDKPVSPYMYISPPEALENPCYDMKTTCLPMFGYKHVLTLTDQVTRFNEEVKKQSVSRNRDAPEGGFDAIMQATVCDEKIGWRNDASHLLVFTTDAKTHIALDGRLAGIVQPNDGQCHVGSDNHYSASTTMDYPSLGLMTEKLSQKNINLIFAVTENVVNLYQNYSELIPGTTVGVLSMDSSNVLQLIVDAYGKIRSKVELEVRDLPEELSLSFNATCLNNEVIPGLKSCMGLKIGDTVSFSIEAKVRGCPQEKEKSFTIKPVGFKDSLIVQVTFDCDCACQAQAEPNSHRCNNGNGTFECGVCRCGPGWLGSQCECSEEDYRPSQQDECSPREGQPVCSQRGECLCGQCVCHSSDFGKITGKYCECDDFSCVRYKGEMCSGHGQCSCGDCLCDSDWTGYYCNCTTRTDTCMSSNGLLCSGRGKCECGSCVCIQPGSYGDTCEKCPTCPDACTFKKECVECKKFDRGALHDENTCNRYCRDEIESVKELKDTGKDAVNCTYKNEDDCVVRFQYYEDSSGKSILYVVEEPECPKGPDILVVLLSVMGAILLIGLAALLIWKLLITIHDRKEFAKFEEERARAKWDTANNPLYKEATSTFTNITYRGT
Chain of Integrin alpha-IIb/beta-3 (P08514 32-887 limits assumed): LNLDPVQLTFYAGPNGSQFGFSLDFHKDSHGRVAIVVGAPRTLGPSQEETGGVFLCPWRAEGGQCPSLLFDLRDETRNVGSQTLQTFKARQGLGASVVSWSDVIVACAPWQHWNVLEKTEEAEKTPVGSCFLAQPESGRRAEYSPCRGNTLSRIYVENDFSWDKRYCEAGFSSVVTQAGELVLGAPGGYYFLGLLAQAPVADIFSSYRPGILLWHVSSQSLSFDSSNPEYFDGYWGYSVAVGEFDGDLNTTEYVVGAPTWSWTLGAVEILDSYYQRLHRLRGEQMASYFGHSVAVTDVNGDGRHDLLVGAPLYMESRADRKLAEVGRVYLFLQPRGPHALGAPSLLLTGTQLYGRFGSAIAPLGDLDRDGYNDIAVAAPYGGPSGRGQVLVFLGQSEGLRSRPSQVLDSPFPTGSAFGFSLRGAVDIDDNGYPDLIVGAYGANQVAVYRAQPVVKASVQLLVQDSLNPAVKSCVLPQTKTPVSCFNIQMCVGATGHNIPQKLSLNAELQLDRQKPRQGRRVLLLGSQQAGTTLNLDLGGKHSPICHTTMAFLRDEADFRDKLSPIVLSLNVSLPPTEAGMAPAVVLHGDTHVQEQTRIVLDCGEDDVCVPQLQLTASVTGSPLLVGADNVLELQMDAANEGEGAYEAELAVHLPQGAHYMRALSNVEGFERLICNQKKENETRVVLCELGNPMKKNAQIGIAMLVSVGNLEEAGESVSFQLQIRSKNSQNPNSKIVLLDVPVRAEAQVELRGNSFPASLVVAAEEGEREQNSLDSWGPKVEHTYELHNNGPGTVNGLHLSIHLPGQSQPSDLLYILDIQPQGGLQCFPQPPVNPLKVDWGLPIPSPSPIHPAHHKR
Chain of Integrin alpha-IIb/beta-3 (P08514 891-1039 limits assumed): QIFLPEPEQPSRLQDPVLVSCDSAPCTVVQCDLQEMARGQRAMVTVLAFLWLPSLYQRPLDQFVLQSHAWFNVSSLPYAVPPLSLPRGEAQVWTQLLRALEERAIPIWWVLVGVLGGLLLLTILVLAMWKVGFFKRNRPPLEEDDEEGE
`N=C(N)c1ccc(C(=O)NCCC(=O)N[C@@H](CC(=O)O)C(=O)N[C@H](Cc2c[nH]c3ccccc23)C(=O)O)cc1` (single isomer, unassigned) returned a Ki of 2.3 nM.

`N=C(N)c1ccc(C(=O)NCCC(=O)N[C@@H](CC(=O)O)C(=O)NC(Cc2ccc(O)cc2)C(=O)O)cc1` (single isomer, unassigned): affinity was put at a Ki of 2.1 nM.
